Experiment [1] has as its system Human primary dermal fibroblasts. Nature of the experiment: Inhibition of cell spreading in a fibroblast model. Format: cell-based. Set-up: key: “+++” vs. “++” vs. “+” in general denotes ˜4-fold differences in potency; “+++” vs. “++” vs. “+” in general denotes ˜4-fold differences in potency; “+++” vs. “++” vs. “+” in general denotes ˜4-fold differences in potency; “−” denotes no activity at any dose tested, up to 1000× the effective dose of halofuginone. The note with it: spreading of cells assessed by light microscopy 28 hours after treatment. On the procedure:
The ability of halofuginone and analogs thereof to inhibit the spreading of freshly plated primary dermal fibroblasts was examined. Human primary dermal fibroblasts were replated and halofuginone added immediately after replating; spreading of cells was assessed by light microscopy 28 hours after treatment with compound. “+++” vs. “++” vs. “+” in general denotes ˜4-fold differences in potency. “−” denotes no activity at any dose tested, up to 1000× the effective dose of halofuginone.

Experiment [2] relates to translation of luciferase RNA in rabbit reticulocyte lysate. Kind of experiment: Translation of a luciferase RNA reporter in rabbit reticulocyte lysate. It is filed as biochemical. Further details: key to Translational inhibition: “+++” vs. “++” vs. “+” in general denotes ˜4-fold differences in potency; “+++” vs. “++” vs. “+” in general denotes ˜4-fold differences in potency; “+++” vs. “++” vs. “+” in general denotes ˜4-fold differences in potency; “−” denotes no activity at any dose tested, up to 1000× the effective dose of halofuginone. The following applies: luciferase RNA reporter. The protocol:
To distinguish these possibilities, the effect of halofuginone on protein translation was examined in an in vitro system (rabbit reticulocyte lysate) in which amino acids are already present at levels adequate to support protein synthesis. […] Distinct tRNA synthetases catalyze the charging of individual tRNA species with their cognate amino acid. To determine which tRNA synthetase is inhibited by halofuginone, several amino acid mixtures were added to the in vitro translation system to determine which, if any, could reverse the inhibition of translation by halofuginone (FIG. 3). […] To examine whether proline could specifically rescue the effect of halofuginone in intact cells, the ability of each amino acid to reverse the effect of halofuginone on eIF2alpha phosphorylation in T-cells or to prevent halofuginone inhibition of Th17 differentiation was tested (FIG. 4). […] Inhibition of EPRS with compounds of the current invention can inhibit Th17 differentiation.
Translation in vitro was performed using rabbit reticulocyte lysates and luciferase mRNA as template. Translation was measured as arbitrary units of luciferase activity using a luminometer based luminescence assay. Log scale presentation of background-subtracted data is shown.
Inhibition of translation of luciferase RNA by halofuginone and analogs thereof was measured as described in FIG. 3 above. Results are shown of translation of a luciferase RNA reporter in a rabbit reticulocyte lysate. “+++” vs. “++” vs. “+” in general denotes ˜4-fold differences in potency. “−” denotes no activity at any dose tested, up to 1000× the effective dose of halofuginone.

Experiment [3] has as its system CD4+ CD25− T cells (Th1, Th2, iTreg differentiation, proliferation, CD25), CD8+ T cells, B cells. Kind of experiment: T and B cell activation, proliferation and Th1, Th2, iTreg differentiation. Format: cell-based, murine. The following applies: polarizing cytokine conditions; IFNγ, IL-4, Foxp3 expression. On the procedure:
Cytokines secreted into media supernatant were measured using the mouse Th1/Th2 cytometric bead array (CBA—BD Pharmingen) in accordance with manufacturers instructions.

Experiment [4] deals with Th17 differentiation of CD4+ CD25− T cells. Kind of experiment: Th17 differentiation of CD4+ CD25− T cells (IL-17+ IFNγ− cells, intracellular cytokine staining). The note with it: activated in the presence of TGFβ plus IL-6, intracellular cytokine staining day 4.
Procedure: Purified CD4^+ CD25^− T cells were activated in vitro as previously described (Djuretic et al., Nat. Immunol. 8:145, 2007) using 0.3 μg/ml hamster anti-mouse CD3 (clone 145-2C11) (ATCC, Manassas, Va.) and 0.5 μg/ml hamster anti-mouse CD28 (BD Pharmingen, San Jose, Calif.). Activated cell cultures were differentiated using the following combinations of cytokines and antibodies: iTreg—recombinant human TGFβ1 (3 ng/ml—R&D systems, Minneapolis, Minn.), Th17-TGFβ1 (3 ng/ml) plus recombinant mouse IL-6 (30 ng/ml—R&D systems). […] Human IL-2 supernatant (National Cancer Institute) was used in culture at 0.01 U/ml and was added at 48 hours-post activation when T cells were split into tissue culture wells lacking CD3 and CD28 antibodies, with the exception of Th17 cultures that were maintained in the absence of exogenous IL-2. […] All reagents (see below) were added at the time of T cell activation and again at 48 hours post activation unless indicated otherwise.
For detection of intracellular cytokines in murine cells, cultured T or B cells were stimulated with 10 nM PMA (Sigma) and 1 mM ionomycin (Sigma) for 4-5 hours in the presence of 10 mM brefeldin A (Sigma). Stimulated cells were harvested, washed with PBS and fixed with PBS plus 4% paraformaldehyde at room temperature for 20 minutes. Cells were then washed with PBS, permeabilized with PBS supplemented with 1% BSA and 0.5% saponin (Sigma) at room temperature for 10 minutes before cytokine-specific antibodies were added and incubated with cells for an additional 20 minutes at room temperature. […] All stained cells were stored at 4° C. in PBS plus 1% paraformaldehyde prior to FACS analyses.
All cell surface staining was performed in FACS buffer (PBS/2% FBS/0.1% NaN3) and antibodies were incubated with cells on ice for 20-30 minutes. Cells were washed with FACS buffer and fixed with FACS buffer plus 1% paraformaldehyde prior to data acquisition.
The subject of experiment [5] is Differentiation of primary naïve T-cells into Th17 cells. Nature of the experiment: Inhibition of Th17 differentiation of primary naïve T-cells by halofuginone analogs. Format: cell-based, murine. Further details: key: “+++” vs. “++” vs. “+” in general denotes ˜4-fold differences in potency; “+++” vs. “++” vs. “+” in general denotes ˜4-fold differences in potency; “+++” vs. “++” vs. “+” in general denotes ˜4-fold differences in potency; “−” denotes no activity at any dose tested, up to 1000× the effective dose of halofuginone. The following applies: T-cell receptor stimulation+IL-6+TGFb. On the procedure: Naïve T-cells were stimulated to differentiate in the presence or absence of 10 nM halofuginone, with 1 mM of the indicated amino acids added to the medium, and stained for Th17 differentiation on day 4. Naïve murine T cells were activated in the presence or absence of TGFβ plus IL-6 as indicated, expanded in for 4 days and restimulated with PMA and ionomycin for intracellular cytokine staining. […] Bars indicate percentage of cells differentiation as Th17 as indicated by IL17 expression.
The effect of different halofuginone and analogs thereof on differentiation of naïve T-cells was assayed as described in legend for FIG. 4 above. Differentiation of primary naïve T-cells into Th17 cells following T-cell receptor stimulation+IL-6+TGFb. “+++” vs. “++” vs. “+” in general denotes ˜4-fold differences in potency. “−” denotes no activity at any dose tested, up to 1000× the effective dose of halofuginone.

Experiment [6] deals with eIF2α phosphorylation and ATF4 protein levels in CD4+ CD25− T cells. Kind of experiment: Amino acid response (AAR) pathway activation in T cells, western blot. The note with it: 4 hours; 10 nM HF or 1 μg/ml tunicamycin. Format: cell-based, mice. The protocol: CD4+ CD25− T cells purified from wild type of GCN2−/− mice were activated through TCR for 4 hours in the presence of halofuginone (10 nM) or 9 (MAZ1310, 10 nM). Whole cell lysates were analyzed by SDS PAGE/Western blot and antibodies indicated.
Naïve T-cells were treated to stimulate the T-cell receptor (TCR) in the presence or absence of 10 nM halofuginone in the presence of 1 mM added amino acid, and then assayed for eIF2alpha activity phosphorylation by SDS PAGE/Western blot.
HF induced detectable eIF2α phosphorylation at 2.5 nM, and this effect plateaued at 5-10 nM HF (FIG. 7D). […] AAR activation was a general consequence of HF treatment; HF induced eIF2α phosphorylation, not only in T cells activated in Th17-priming conditions, but also in resting naïve T cells and T cells activated in ThN, Th1, Th2, and iTreg polarizing conditions (FIG. 7F). […] Thus, the rapid activation of the AAR pathway by HF could underlie both its selective inhibition of Th17 differentiation and its effects on fibroblasts (Pines and Nagler, Gen. Pharmacol. 30:445, 1998).
To delineate the stress response pathway activated by HF, the effects of amino acid starvation with those of tunicamycin (an inducer of ER stress) or HF treatment during T cell activation were compared.
Whole cell lysates were generated from T cells activated for the indicated times. For STAT3 and Smad2/3 western blots cells were harvested, washed in PBS and lysed in 50 mM Tris, pH 7.4, 0.1% SDS, 1% Triton-X100, 140 mM NaCl, 1 mM EDTA, 1 mM EGTA supplemented with protease inhibitors tablets (Roche, Germany), 1 mM NaF and 1 mM Na3VO4. For eIF2α and ATF4 western blots, cells were harvested as above and lysed in 50 mM Tris, pH 7.4, 2% SDS, 20% glycerol and 2 mM EDTA supplemented with protease and phosphatase inhibitors as above. All lysates were cleared via centrifugation and 15-30 μg of protein was resolved by SDS-PAGE. Protein was transferred to nitrocellulose membranes, blocked and blotted using specific antibodies. Antibodies used for western blot analysis were anti-phospho-Smad2, anti-STAT3 (pY705), anti-STAT3, anti-eIF2α^pS51, anti-eIF2α (all from Cell Signaling Technology, Danvers, Mass.). Anti-ATF4/CREB2 and anti-β-actin were purchased from Santa Cruz Biotechnology (Santa Cruz, Calif.). HRP-conjugated secondary antibodies were all purchased from Sigma, with the exception of HRP-conjugated anti-armenian hamster antibody (Jackson Immunoresearch, West Grove, Pa.).
A general note: A western blot detects proteins with antibodies after separation by electrophoresis.

For `CCOP(=O)(OCC)OC1CCCNC1CC(=O)Cn1cnc2cc(Br)c(Cl)cc2c1=O` (stereo not drawn) [Compound 16, (2S/R,3R/S)-2-(3-(7-bromo-6-chloro-4-oxoquinazolin-3(4H)-yl)-2-oxopropyl)piperidin-3-yl diethyl phosphate], in experiment [1], the Fibroblast inhibition entry is listed as “−”. In addition, the Translational inhibition result in experiment [2] is “−”.
For `C#Cc1cc2ncn(CC(=O)CC3NCCCC3O)c(=O)c2cc1Cl` (stereo not drawn) [MAZ1320], in experiment [3], the “effect on Th1, Th2, iTreg differentiation” value is given as “without inhibiting Th1 differentiation”. The “inhibition of Th17 differentiation / IL-17 expression (in words)” value in experiment [4] was “selectively inhibit the differentiation of Th17 cells”.
Turning to “N-(6-((Z)-2-(1-(7-bromo-6-chloro-4-oxoquinazolin-3(4H)-yl)-3-((2S/R,3R/S)-3-hydroxypiperidin-2-yl)propan-2-ylidene)hydrazinyl)-6-oxohexyl)-6-(5-(2-oxohexahydro-1H-thieno[3,4-d]imidazol-4-yl)pentanamido)hexanamide [Compound 13]”, the Fibroblast inhibition entry in experiment [1] is reported as “++”. Moreover, the “Inhibition of Th17 differentiation” value in experiment [5] is listed as “++”. For the same compound, the Translational inhibition result in experiment [2] is “++”.
For the compound `C#Cc1cc2ncn(CC(=O)CC3NCCCC3O)c(=O)c2cc1Cl` (stereo not drawn) [Compound 7, 6-chloro-7-ethynyl-3-(3-((2S/R,3R/S)-3-hydroxypiperidin-2-yl)-2-oxopropyl)quinazolin-4(3H)-one], in experiment [1], the Fibroblast inhibition result is on record as “+++”. Besides, the “Inhibition of Th17 differentiation” value in experiment [5] is given as “+++”. In experiment [2], the Translational inhibition entry is recorded as “+++”.
Turning to `C[C@@H]1C[C@H](C)C[C@H](C)[C@@H](O)CC(=O)O[C@H]([C@@H]2CCC[C@H]2C(=O)O)C/C=C/C=C(/C#N)[C@H](O)[C@@H](C)C1` [Borrelidin], in experiment [3], the “effect on Th1, Th2, iTreg differentiation” value is listed as “without affecting Th1, Th2, or Treg differentiation or cell number”. In addition, the “inhibition of Th17 differentiation / IL-17 expression (in words)” value in experiment [4] is on record as “inhibits Th17 differentiation”.
On to `O=C(CC1NCCCC1O)Cn1cnc2ccccc2c1=O` (stereo not drawn) [Compound 3, febrifugine], for which, in experiment [1], the Fibroblast inhibition result was “++”. In addition, the “Inhibition of Th17 differentiation” value in experiment [5] was “++”. Also, the Translational inhibition result in experiment [2] was “++”.
Take `O=C(CC1NCCCC1O)Cn1cnc2cc(Br)c(Cl)cc2c1=O` (single isomer, unassigned) [L-enantiomer]: the “inhibition of Th17 differentiation / IL-17 expression (in words)” value in experiment [4] was “completely inactive”.
On to `N[C@H](CO)Cc1c[nH]c2ccccc12` [L-tryptophanol], for which the results for the “inhibition of Th17 differentiation / IL-17 expression (in words)” value in experiment [4] and in experiment [4] (listed as tryptophanol) were “impaired IL-17 production” and “inhibited Th17 differentiation”, respectively.
In the case of `COC(=O)CCCCC(=O)N/N=C(/CC1NCCCC1O)Cn1cnc2cc(Br)c(Cl)cc2c1=O` (stereo not drawn) [Compound 12, methyl 6-((Z)-2-(1-(7-bromo-6-chloro-4-oxoquinazolin-3(4H)-yl)-3-((2S/R,3R/S)-3-hydroxypiperidin-2-yl)propan-2-ylidene)hydrazinyl)-6-oxohexanoate], the Fibroblast inhibition result in experiment [1] is reported as “++”. Besides, in experiment [2], the Translational inhibition entry was “++”.
Regarding `O=C(CC1NCCCC1O)Cn1cnc2cc(Br)c(Cl)cc2c1=O` (single isomer, unassigned) [D-enantiomer of HF], the “inhibition of Th17 differentiation / IL-17 expression (in words)” value in experiment [4] was “inhibited IL-17 expression more potently than a racemic mixture”.
As for `N/N=C(/CC1NCCCC1O)Cn1cnc2cc(Br)c(Cl)cc2c1=O` (stereo not drawn) [MAZ1686], the “effect on Th1, Th2, iTreg differentiation” value in experiment [3] is listed as “without inhibiting Th1 differentiation”. The “inhibition of Th17 differentiation / IL-17 expression (in words)” value in experiment [4] is recorded as “selectively inhibit the differentiation of Th17 cells”.
For the compound `C[Si](C)(C)C#Cc1cc2ncn(CC(=O)CC3NCCCC3O)c(=O)c2cc1Cl` (stereo not drawn) [Compound 5, 6-chloro-3-(3-((2S/R,3R/S)-3-hydroxypiperidin-2-yl)-2-oxopropyl)-7-((trimethylsilyl)ethynyl)quinazolin-4(3H)-one], the Fibroblast inhibition result in experiment [1] is recorded as “++”.
Take `NCCOCCOCCNC(=O)CCCC#Cc1cc2ncn(CC(=O)CC3NCCCC3O)c(=O)c2cc1Cl` (stereo not drawn) [Compound 8, N-(2-(2-(2-aminoethoxy)ethoxy)ethyl)-6-(6-chloro-3-(3-((2S/R,3R/S)-3-hydroxypiperidin-2-yl)-2-oxopropyl)-4-oxo-3,4-dihydroquinazolin-7-yl)hex-5-ynamide]: in experiment [1], the Fibroblast inhibition entry was “+”. In experiment [2], the Translational inhibition entry is recorded as “+”.
For tunicamycin, in experiment [3], the “effect on Th1, Th2, iTreg differentiation” value is “preferentially impaired Th1 and Th2 differentiation”. Besides, the “stress response pathway: eIF2α phosphorylation, ATF4 expression, Xbp-1 splicing” value in experiment [6] is “induced eIF2α phosphorylation and ATF4 expression together with Xbp-1 splicing”. Also, in experiment [4], the “inhibition of Th17 differentiation / IL-17 expression (in words)” value is given as “had little influence on IL-17 expression in T cells”.
On to `CC(=O)N/N=C(/CC1NCCCC1O)Cn1cnc2cc(Br)c(Cl)cc2c1=O` (stereo not drawn) [Compound 14, (Z)—N′-(1-(7-bromo-6-chloro-4-oxoquinazolin-3(4H)-yl)-3-((2S/R,3R/S)-3-hydroxypiperidin-2-yl)propan-2-ylidene)acetohydrazide], for which the Translational inhibition result in experiment [2] is recorded as “++”.

Values taken from US9284297B2, “Halofuginone analogs for inhibition of tRNA synthetases and uses thereof” (President and Fellows of Harvard College, priority 2008, dated 2016).
